The record followed here is US7109193B2, “Tricyclic diazepines tocolytic oxytocin receptor antagonists” (Wyeth, priority 2001, dated 2006).

pIC50: −log10 of the molar value.

In one experiment the target is T1, human oxytocin receptor (Homo sapiens, UniProt P30559).
T1 construct: host or cells: CHO cells (pcDNA3.1 vector)
T1 sequence (P30559 1-389): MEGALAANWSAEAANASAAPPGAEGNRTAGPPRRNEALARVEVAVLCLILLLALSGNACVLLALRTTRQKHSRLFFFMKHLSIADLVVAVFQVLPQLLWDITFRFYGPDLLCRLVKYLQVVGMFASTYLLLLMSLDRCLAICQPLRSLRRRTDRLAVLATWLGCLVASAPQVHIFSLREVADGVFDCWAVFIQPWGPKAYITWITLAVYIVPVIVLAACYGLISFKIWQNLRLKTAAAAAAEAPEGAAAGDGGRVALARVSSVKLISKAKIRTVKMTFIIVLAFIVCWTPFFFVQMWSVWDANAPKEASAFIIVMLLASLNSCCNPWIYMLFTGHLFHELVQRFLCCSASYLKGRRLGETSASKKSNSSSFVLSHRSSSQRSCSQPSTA
The experiment in a line: Oxytocin binding in Chinese Hamster Ovary cell membranes expressing human oxytocin receptors. As to conditions: 100 nM, CHO cell membranes, [3H]oxytocin, values without parentheses, read-out: OT % inhibition @ 100% nM.
With `COc1ccccc1-c1ccc(C(=O)N2Cc3ccc(C(=O)N(C)CCN(C)C)n3Cc3ccccc32)cc1OC` [Example 94, 10-[(2,2′-Dimethoxy[1,1′-biphenyl]-4-yl)carbonyl]-N-[2-(dimethylamino)ethyl]-N-methyl-10,11-dihydro-5H-pyrrolo[2,1-c][1,4]benzodiazepine-3-carboxamide], the inhibition at 0.1 µM is 94%.
For the compound `COc1cccc(-c2cc(OC)c(C(=O)N3Cc4ccc(C(=O)NCCCN(C)C)n4Cc4ccccc43)cc2Cl)c1` [Example 79, 10-[(6-Chloro-3,3′-dimethoxy[1,1′-biphenyl]-4-yl)carbonyl]-N-[3-(dimethylamino)propyl]-10,11-dihydro-5H-pyrrolo[2,1-c][1,4]benzodiazepine-3-carboxamide], the inhibition at 0.1 µM stood at 35%.
Take `COc1cc(C(=O)N2Cc3ccc(C(=O)NCCCN(C)C)n3Cc3ccccc32)ccc1-c1cccc2ccccc12` [Example 80, N-[3-(Dimethylamino)propyl]-10-[3-methoxy-4-(1-naphthyl)benzoyl]-10,11-dihydro-5H-pyrrolo[2,1-c][1,4]benzodiazepine-3-carboxamide]: the inhibition at 0.1 µM was found to be 44%.
Consider `COc1ccccc1-c1ccc(C(=O)N2Cc3ccc(C(=O)N(C)CCN(C)C)n3Cc3ccccc32)cc1` [Example 90, N-[2-(Dimethylamino)ethyl]-10-[(2′-methoxy[1,1′-biphenyl]-4-yl)carbonyl]-N-methyl-10,11-dihydro-5H-pyrrolo[2,1-c][1,4]benzodiazepine-3-carboxamide], for which the inhibition at 0.1 µM turned out to be 100%.

Staying with this experiment, now noted: CHO cell membranes, [3H]oxytocin, values in parentheses, read-out: OT (IC50).
On to `Cc1ccc(-c2ccc(C(=O)N3Cc4cccn4Cc4ccccc43)cc2)c2ccccc12` [Example 25, [4-(4-Methyl-naphthalen-1-yl)phenyl][10,11-dihydro-5H-pyrrolo[2,1-c][1,4]benzodiazepin-10-yl]methanone], for which the pIC50 is 7.25.
As for `Cc1cc(C(=O)N2Cc3ccc(C(=O)N4CCCN(C)CC4)n3Cc3ccccc32)ccc1-c1ccccc1C(F)(F)F` [Example 59, (4-Methyl-1,4-diazepan-1-yl)(10-{[2-methyl-2′-(trifluoromethyl)[1,1′-biphenyl]-4-yl]carbonyl}-10,11-dihydro-5H-pyrrolo[2,1-c][1,4]benzodiazepin-3-yl)methanone], the pIC50 was 7.78.
Still for that read-out and setting: next, `COc1ccccc1-c1ccc(C(=O)N2Cc3ccc(C(=O)N4CCC(N5CCCCC5)CC4)n3Cc3ccccc32)cc1` [Example 111, {10-[(2′-Methoxy[1,1′-biphenyl]-4-yl)carbonyl]-10,11-dihydro-5H-pyrrolo[2,1-c][1,4]benzodiazepin-3-yl}[4-(1-piperidinyl)-1-piperidinyl]methanone]: 8.17; `COc1cc(-c2ccccc2C)c(Cl)cc1C(=O)N1Cc2ccc(C(=O)N3CCC(N4CCCC4)CC3)n2Cc2ccccc21` [Example 136, {10-[(6-Chloro-3-methoxy-2′-methyl[1,1′-biphenyl]-4-yl)carbonyl]-10,11-dihydro-5H-pyrrolo[2,1-c][1,4]benzodiazepin-3-yl}[4-(1-pyrrolidinyl)-1-piperidinyl]methanone]: 8.14; `COc1cccc(-c2cc(OC)c(C(=O)N3Cc4ccc(C(=O)N(C)CCN(C)C)n4Cc4ccccc43)cc2Cl)c1` [Example 87, 10-[(6-Chloro-3,3′-dimethoxy[1,1′-biphenyl]-4-yl)carbonyl]-N-[2-(dimethylamino)ethyl]-N-methyl-10,11-dihydro-5H-pyrrolo[2,1-c][1,4]benzodiazepine-3-carboxamide]: 8.33.
As to `Cc1cc(C(=O)N2Cc3ccc(C(=O)N4CCN(CCN(C)C)CC4)n3Cc3ccccc32)ccc1-c1ccccc1C(F)(F)F` [Example 196, {4-[2-(Dimethylamino)ethyl]-1-piperazinyl}(10-{[2-methyl-2′-(trifluoromethyl)[1,1′-biphenyl]-4-yl]carbonyl}-10,11-dihydro-5H-pyrrolo[2,1-c][1,4]benzodiazepin-3-yl)methanone], the pIC50 was 7.93.
For the compound `COc1cc(-c2ccccc2C)c(Cl)cc1C(=O)N1Cc2ccc(C(=O)N3CCN(CCN(C)C)CC3)n2Cc2ccccc21` [Example 197, {10-[(6-Chloro-3-methoxy-2′-methyl[1,1′-biphenyl]-4-yl)carbonyl]-10,11-dihydro-5H-pyrrolo[2,1-c][1,4]benzodiazepin-3-yl}{4-[2-(dimethylamino)ethyl]-1-piperazinyl}methanone], the pIC50 was 8.27.
As for `COc1cc(C(=O)N2Cc3ccc(C(=O)N(C)CCN(C)C)n3Cc3ccccc32)ccc1-c1ccccc1C(F)(F)F` [Example 22, N-Methyl-[N-(2-dimethylamino)ethyl]-10-{[2-methoxy-2′-trifluoromethyl-[1,1′-biphenyl]-4-yl]carbonyl}-10,11-dihydro-5H-pyrrolo[2,1-c][1,4]benzodiazepine-3-carboxamide], the negative-log IC50 (pIC50) was 8.76.
Consider `COc1cccc(-c2ccc(C(=O)N3Cc4ccc(C(=O)N5CC[C@@H](N(C)C)C5)n4Cc4ccccc43)cc2C)c1` [Example 278, [(3R)-3-(Dimethylamino)pyrrolidinyl]{10-[(3′-methoxy-2-methyl[1,1′-biphenyl]-4-yl)carbonyl]-10,11-dihydro-5H-pyrrolo[2,1-c][1,4]benzodiazepin-3-yl}methanone], for which the pIC50 was 8.10.
Turning to `COc1ccccc1-c1ccc(C(=O)N2Cc3ccc(C(=O)N4CCN(CCN(C)C)CC4)n3Cc3ccccc32)cc1C` [Example 195, {4-[2-(Dimethylamino)ethyl]-1-piperazinyl}{10-[(2′-methoxy-2-methyl[1,1′-biphenyl]-4-yl)carbonyl]-10,11-dihydro-5H-pyrrolo[2,1-c][1,4]benzodiazepin-3-yl}methanone], the pIC50 was 8.42.
Same read-out and setting: next, `COc1ccccc1-c1ccc(C(=O)N2Cc3ccc(C(=O)N4CCCN(C)CC4)n3Cc3ccccc32)cc1` [Example 61, {10-[(2′-Methoxy[1,1′-biphenyl]-4-yl)carbonyl]-10,11-dihydro-5H-pyrrolo[2,1-c][1,4]benzodiazepin-3-yl}(4-methyl-1,4-diazepan-1-yl)methanone]: 8.35; `Cc1cc(C(=O)N2Cc3ccc(C(=O)N4CCC[C@H]4CN4CCCC4)n3Cc3ccccc32)ccc1-c1ccccc1C(F)(F)F` [Example 258, (10-{[2-Methyl-2′-(trifluoromethyl)[1,1′-biphenyl]-4-yl]carbonyl}-10,11-dihydro-5H-pyrrolo[2,1-c][1,4]benzodiazepin-3-yl)[(2S)-2-(1-pyrrolidinylmethyl)pyrrolidinyl]methanone]: 8.55.
For the compound `O=C(c1ccc(-c2cccc3ccccc23)cc1Cl)N1Cc2cccn2Cc2ccccc21` [Example 24, [2-Chloro-4-(naphthalen-1-yl)phenyl][10,11-dihydro-5H-pyrrolo[2,1-c][1,4]benzodiazepin-10-yl]methanone], the pIC50 was 8.10.
Same read-out and setting: next, `COc1cc(-c2ccccc2C)c(Cl)cc1C(=O)N1Cc2ccc(C(=O)N3CCCN(C)CC3)n2Cc2ccccc21` [Example 60, {10-[(6-Chloro-3-methoxy-2′-methyl[1,1′-biphenyl]-4-yl)carbonyl]-10,11-dihydro-5H-pyrrolo[2,1-c][1,4]benzodiazepin-3-yl}(4-methyl-1,4-diazepan-1-yl)methanone]: 8.27.

In general, inhibition refers to the relative decrease from the control value, in per cent. As a reminder, the pIC50 is −log10 of the IC50, conventionally taken in molar units.
